This note sets out measurements from patent US4482548A, “Analgesic pharmaceutical compositions containing 5-phenyl-1,4-benzo diazepine compounds and a method of using same” (Kali-Chemie Pharma GmbH, priority 1982, dated 1984).

What is called ED50 is the dose that gives a 50% effect, or the effect in half of the subjects. Low readings indicate an effect at a small dose, high ones a need for a large dose.

For series [1], the system named is arthritis pain in rats. As to the kind of experiment: Arthritis pain test on rats (suppression of the arthritis pain in rats). The format is in vivo, male rats of the OFA strain. The settings on record: Rattus norvegicus, po, 3 h after administration; dosage protecting 50% of the treated animals against pain. On the procedure: (§1) Such tests, for instance, compare the pain allaying effect of the test compound in the arthritis pain test with the sedative and muscle relaxing effects which impair the normal activity of rats.
1. Arthritis pain test on rats.
Male rats of the OFA strain, weighing between 160 g. and 180 g. are anesthetized by intraperitoneal administration of 20 mg./kg. of Pentobarbital Sodium. 0.1 ml. of a suspension of 0.6 mg. of Mycobacterium Smegmae (SI043) in paraffin oil are injected intracutaneously into the left hind paw of the rats. Fourteen days thereafter, when a pronounced secondary arthritis has developed especially in the right hind paw of the rats, the effects of the test compounds are investigated. For this purpose a control measurement is carried out thirty minutes before administration of the compound to be tested by deflecting three times the ankle joints of the right hind paws of the test animals and counting the number of distress sounds emitted by them. […] The ankle joint deflecting procedure is repeated three hours after oral administration of the compounds to be tested. Animals which emit distress sounds either only once or not at all are considered as being protected against pain. The dosage by which protection against pain is achieved in 50% of the treated animals is designated as the effective dosage ED50.

The nature of series [2]: Inhibition of the locomotion exploratory activity according to Janssen (suppression of the locomotor exploration activity on rats). Set-up: species or system male rats of the Sprague-Dawley type. The settings on record: rat, in vivo, po, 1 h before test; dosage corresponding to 9 points for six pairs of rats.
From the text: as §1
2. Determination of the inhibition of the locomotion exploratory activity according to the method described by Janssen in "Psychopharmakologie", vol. 1 (1961), pages 141-146.
The compound to be tested is orally administered in the form of a suspension in 2% Tylose solution to male rats of the Sprague-Dawley type one hour before starting the test. Six pairs of rats are used for each dosage to be administered. Each pair of rats is then placed into an environment which is entirely unknown to them. The locomotor activity of said rats with respect to the exploration and inquisitiveness phase within the first thirty seconds is observed and recorded by two observers. The observed activity is evaluated according to a point system. According to said system the highest possible number of points for six pairs of rats amounts to 18 points. That dosage which corresponds to 9 points for six pairs of rats is designated as ED50.

Series [3] can be described thus: Acute toxicity on mice. The settings on record: mouse, in vivo, po, read-out: Acute toxicity on mice ED50.

`CN1C(=O)CN=C(c2ccccc2)c2cc(Cl)ccc21` [Diazepam, 7-chloro-1-methyl-5-phenyl-1,3-dihydro-2H-1,4-benzo diazepin-2-one, reference compound]: the ED50 in series [1] is 6.2 mg/kg. In addition, the 50% effect level in series [2] (ED50 at 1 h) was put at a dose of 11.5 mg/kg.
`COCC1CN=C(c2ccccc2Cl)c2cc(Br)ccc2N1C` (centres unmarked) [compound 1, 1-methyl-7-bromo-2-methoxy methyl-5-(2-chlorophenyl)-1H-2,3-dihydro-1,4-benzo diazepine] registered an ED50 in series [1] of 4.8 mg/kg. Besides, the LD50 in series [3] was determined as 2390 mg/kg. The molecule further yielded an ED50 at 1 h in series [2] of 56.2 mg/kg.
The like results for `COCC1CN=C(c2ccccc2Cl)c2cc(Cl)ccc2N1C` (centres unmarked) [compound 2, 1-methyl-7-chloro-2-methoxy methyl-5-(2-chlorophenyl)-1H-2,3-dihydro-1,4-benzo diazepine] were, in that order, 10 mg/kg, 1470 mg/kg and 55.5 mg/kg.
